US5741516A, “Sphingosomes for enhanced drug delivery” (priority 1995, dated 1998)
Read-outs that look alike come from different tables or passages of the source.

Columns and labels:
[1] = for animals that died after chemotherapy (in words): LD50 dose, within a few days; for Survival (%): 14 days
Description: Female C57BL/6 mice (average weight 15.03 g), were used and housed under standard conditions. The animals received free access to both food and water throughout the experiment after a one week acclimatization period prior to experimental manipulation. The mice were 6 weeks old on the beginning of the experiment and placed randomly in 12 groups of 5 mice per group.

tumor cells = conditions: in vitro; cited from earlier work
[2] = test system: colon cancer and melanoma cancers; conditions: combined with interferon, in vivo; cited from earlier work
IL-2 = IL-2 production by mitogen-stimulated splenocytes; format: in vivo, C57BL/6 mice; conditions: vs chemotherapy-treated and PBS controls, FIG. 10B
Description: (§1) Cells from spleen, thymus and bone marrow were tested for their ability to respond to stimulation from different mitogens: ConA (1, 2.5 and 5 μg/ml) (Sigma), phytohemagglutinin (PHA) (1, and 2.5 μg/ml) (Sigma) and LPS (2.5 and 5 μg/ml) (Difco). After 72 hours of stimulation the proliferative response was measured using CellTiter 96 (Promega). Simultaneously, mitogen stimulated splenocytes were set up for cytokine production after ConA (2.5 μg/ml) and lipopolysaccharide (LPS) (2.5 μg/ml) stimulation. The supernatants were collected after 24 hr. and 48 hr. and tested for Tumor Necrosis Factor-α (TNF-α) and Interleukin-2 (IL-2) production using the direct ELISA method. Supernatants from unstimulated cells served as controls. Results are expressed as pg/ml of TNF-α (sensitivity of the assay is <25 pg/ml) or IL-2 (sensitivity of the assay is <3 pg/ml).

[3] = Bioavailability of liposomal swainsonine; format: in vivo, Balb/c mice; conditions: p.o. vs i.v.
Description: Female Balb/c mice, 5-6 weeks of age, were housed under standard conditions. […] Swainsonine (Toronto Res. Chem.) was radiolabeled with tritium. Tritiated swainsonine was administered as a lipid-based formulation (L-Im) and as an aqueous formulation containing the free drug (F-Im). Tritiated swainsonine was loaded into sphingomyelin/cholesterol (Avanti Polar Labs) sphingosomes using a citrate buffer pH 2 gradient at a drug-to-lipid ratio of 0.2:1 (mol:mol) and with an efficiency of loading of 80%. Two hundred microliters of the lipid and aqueous swainsonine formulations were given orally by gavage (p.o.), intraperitoneally (i.p.), or intravenously (i.v.). Fifty microliter blood samples were collected by retroorbital bleeds at 1, 3, 6, and 24 hours after administration. The blood samples were bleached and then counted in a scintillation counter. Results were expressed as the percentage of the administered dose in the blood at various time-points after administration.

TNF-α = assay: TNF production by mitogen-stimulated splenocytes; format: in vivo, C57BL/6 mice; conditions: vs chemotherapy-treated and PBS controls, FIG. 10A
Description: as §1

[4] = test system: IL-1, IL-2, TNF, GM-CSF and interferons; conditions: cited from earlier work
[5] = In vitro oral stability in gastric contents; format: physicochemical; conditions: simulated gastric contents; hydrochloric acid (pH2) with pepsin; up to 72 hours
Description: To establish an advantage for the oral route of administration, swainsonine was incubated in vitro in simulated gastric contents for various periods of time (1, 2, 4, 24, 48 and 72 hrs.) and the "oral stability" of swainsonine was determined. Swainsonine was also incubated in hydrochloric acid (pH2) containing the main gastric digestive enzyme, pepsin.

bone marrow [6] = assay: Bone marrow cellularity after chemotherapy; format: in vivo, C57BL/6 mice; conditions: 14 days after chemotherapy; orally or i.p., vs GM-CSF i.p. 10 days
Description: On the 15th day after the initial chemotherapeutic dose, 4 mice from each group of the immunomodulation study (Example 6) were randomly sacrificed and up to 1 ml of blood was obtained by cardiac puncture. Circulating peripheral WBCs were counted, blood smears (for neutrophil counts) were made and plasma samples were collected and tested for cytokine production (IL-1, IL-2, TNF). Blood cytokine levels (TNF, IL-1, and IL-2) were assayed by commercially available assay kits. The spleen, thymus and bone marrow were removed and single cell suspensions were prepared. The cellularity of these lymphoid organs was assessed by trypan blue exclusion test.

bone marrow [7] = conditions: cited from earlier work
A431 tumors = assay: Antitumor efficacy against A431 tumors; format: in vivo, human A431 xenograft, SCID mice; conditions: vincristine 2.0 mg/kg i.v.
Description: Tumor loading and antitumor efficacy properties of DSPC/Chol and SM/Chol liposomal formulations of vincristine were determined in mice bearing solid human A431 squamous cell xenograft tumors. These experiments were undertaken to ensure that the positive results observed in the murine ascitic P388 tumor model were representative of other tumor types. SCID mice bearing 100-200 mg solid human A431 tumors were injected i.v. with free vincristine or with liposomes of either DSPC/Chol or SM/Chol containing vincristine. Vincristine encapsulated DSPC/Chol and SM/Chol liposomes were prepared as in Example II. […] As observed in BDF1 mice bearing P388 tumors, the amount of vincristine remaining in the circulation in SM/Chol liposomes at 24 hours after injection was approximately 3-fold greater than for vincristine encapsulated in DSPC/Chol liposomes (FIG. 11A).
The antitumor efficacy of free and liposomal vincristine against A431 was closely correlated with vincristine accumulation at the tumor site (FIG. 12). […] This therapy was further enhanced by a single treatment of vincristine encapsulated in SM/Chol liposomes. […] Of the five mice (total of 10 tumors) treated with SM/Chol liposomal vincristine, 1 animal was terminated early due to tumor ulceration, not due to tumor growth.

[8] = Vincristine uptake into liposomes by pH gradient; format: physicochemical; conditions: drug/lipid 0.1/1 (wt/wt), 10 minutes at 60° C
Description: Uptake of vincristine into large unilamellar liposomes was achieved using a pH gradient-dependent procedure described by Mayer et al., Cancer Chemother. Pharmacol. 33:17-24 (1993), incorporated herein by reference. Briefly, a solution of vincristine sulfate (Oncovin®, Eli Lilly, Indianapolis, Ind.) was added to liposomes at a drug/lipid ratio of 0.1/1 (wt/wt) and equilibrated at 60° C. for 5 to 10 minutes. Vincristine uptake in response to a transmembrane pH gradient was initiated by the addition of 0.5M Na2 HPO4 to bring the external pH to 7.2-7.6.

[9] = in vivo; cited from earlier work

## COc1cccc2c1C(=O)c1c(O)c3c(c(O)c1C2=O)C[C@@](O)(C(=O)CO)C[C@@H]3O[C@H]1C[C@H](N)[C@H](O)[C@H](C)O1 [DOX, Doxorubicin]
[1]
  animals that died after chemotherapy (in words): half
[1]; i.p.
  Survival (%): 60%

## CN(Cc1cnc2nc(N)nc(N)c2n1)c1ccc(C(=O)N[C@@H](CCC(=O)O)C(=O)O)cc1 [MTX, methotrexate]
[1]
  animals that died after chemotherapy (in words): Half
[1]; i.p.
  Survival (%): 40%

## O[C@H]1[C@H]2[C@H](O)CCCN2C[C@H]1O [swainsonine]
Tumor cells
  B- and T-cell immunity, natural killer T-cell and macrophage-induced destruction of tumor cells: induces B- and T-cell immunity, natural killer T-cell and macrophage-induced destruction of tumor cells in vitro
[1]; i.p.
  Survival (%): 100%
[1]; p.o.
  Survival (%): 100%
[1]; swainsonine intravenously or i.p. / GM-CSF i.p., 10 days, after Mtx or Dox
  survival beyond 2 weeks after chemotherapy (in words): all animals
[1]; swainsonine p.o. 10 days after Mtx or Dox
  survival after cytotoxic treatment (in words): all but one animal
[2]
  direct anti-tumor activity: direct anti-tumor activity against colon cancer and melanoma cancers
IL-2
  IL-2 level in stimulated splenocytes: significantly elevated
[3]
  oral bioavailability compared to swainsonine administered intravenously: 60-65%
TNF-α
  TNF level in stimulated splenocytes: significantly elevated
[4]
  production of multiple cytokines: stimulates the production of multiple cytokines
[5]
  in vitro oral stability: stable under these harsh conditions for up to 72 hours
Bone marrow [6]
  bone marrow cellularity: performed as effectively as GM-CSF
Bone marrow [7]
  bone marrow proliferation: has the capacity to stimulate bone marrow proliferation

## CC[C@]1(O)C[C@H]2CN(CCc3c([nH]c4ccccc34)[C@@](C(=O)OC)(c3cc4c(cc3OC)N(C=O)[C@H]3[C@@](O)(C(=O)OC)[C@H](OC(C)=O)[C@]5(CC)C=CCN6CC[C@]43[C@@H]65)C2)C1 [vincristine]
A431 tumors
  delay in tumor growth / change in tumor size: brief delay in tumor growth
  time to 100% increase in tumor weight: 6 to 8 days
  time to required termination: 10 to 12 days
[8]
  trapping efficiency: approximately 95%

## sphingomyelin
[9]
  circulation lifetime of liposomes: increase in the circulation lifetime of liposomes
